Laboratory results as given in patent publication US20180354909A1, “SUBSTITUTED BENZIMIDAZOLIUM, PYRIDO-IMIDAZOLIUM, OR PYRAZINO-IMIDAZOLIUM COMPOUNDS AS CHEMOTHERAPEUTICS” (The Board of Regents of the University of Texas System, priority 2015, published 2018).

What was measured:
Mut6 [1] = experiment: Cytotox testing (CellTiter-Glo ATP assay) in Mut6 cells; format: cell-based, mouse; conditions: CellTiter-Glo; for EC50: Mus musculus, 96 h, Mut6 cells, 4 days, read-out: Activity in Mut6 [EC50]
Protocol: (§1) Mut6 tumor cells were cultured in DMEM/F12 media supplemented by EGF (10 ng/mL), basic FGF (10 ng/mL), heparin (4 ug/mL), glucose (total 21 mM), NaHCO3 (113 μg/mL), Hepes (119 μg/mL), glutamine (2 mM), sodium pyruvate (1 mM), N2 supplement (ThermoFisher Gibco 17502-048, 100×, at 100-fold dilution), B27 supplement (ThermoFisher Gibco 12587-010, 50×, at 100-fold dilution), and penicillin/streptomycin (ThermoFisher, final 1%). Cells were maintained in Ultra-low attachment plate (Corning) as sphere-forming cells. For ATP assays and protein/RNA isolation, cells were plated into 96-well plates or 6-well plated that were coated with poly-lysine (Sigma P6407, 10 μg/mL in PBS, 4 hr at 37° C.) and laminin (ThermoFisher 23017015, ˜5 mg/L in PBS, overnight at 37° C.). MEFs and Astrocytes were cultured in DMEM supplemented with 10% FBS and 1% Penicillin/Streptomycin.
2,000 cells were plated into each well of 96-well plates. About 3 hours later, cells were treated by 12M11, at 800-fold dilution (4 mM stock was diluted into 5 μM final concentration). […] CellTiter-Glo assay (Promega) was performed according to manufacturer's instructions, by adding 20 μL of reagent into each well. Luminescence signal was detected by the PolarStar plate reader (BMG Labtech). Experiments were performed in quadruplicate, and results are presented with mean average −/+ standard deviation. EC505 were calculated by GraphPad Prism6 software.
The compounds described herein were tested using a cell-based cytotoxicity assay against neuronal stem cells in Mut6, which is a mouse glioblastoma model cell line.

[2] = In vitro plasma half-life; format: in vitro ADME; conditions: murine plasma; for half-life at 2 μM: mouse, plasma, read-out: Plasma T1/2 (converted)
Protocol: (§2) 12M11 (2 μM final concentration) was incubated with murine plasma and saline for 0-1440 minutes. Reactions were quenched with 200 μl (1:2) of methanol containing 0.1% formic acid and 200 ng/ml IS (IS final conc.=100 ng/mL). Samples were vortexed for 15 seconds, incubated at RT for 10 minutes and spun for 5 minutes at 13.2K rpm. Supernatant ([…]) was then transferred to an eppendorf tube and spun in a table top, chilled centrifuge for 5 minutes at 13.2K rpm. Supernatant (800 μL) was transferred to an HPLC vial (w/out insert). Analyzed by Qtrap 3200 mass spectrometer. These methods were used data obtained in the FIGS. 22C and 22F.

[3] = Buffer (saline) stability; format: physicochemical
Protocol: as §2

Murine S9 half-life = format: in vitro ADME; conditions: mouse, S9 fraction; murine S9, Phase I cofactors; read-out: S9 T1/2
Protocol: 22D. […] (2 mM in DMSO) was incubated with Murine S9 (Lot KWB) fraction and Phase I (NADPH Regenerating System) cofactors for 0-240 minutes. Reactions were quenched with 1 mL (1:1) of methanol containing 0.2% formic acid and 100 ng/ml IS (IS final conc.=50 ng/mL). Samples were vortexed for 15 seconds, incubated at RT for 10 minutes and spun for 5 minutes at 2400 rpm. Supernatant (1 mL) was then transferred to an eppendorf tube and spun in a table top, chilled centrifuge for 5 minutes at 13.2K rpm. Supernatant (800 uL) was transferred to an HPLC vial (w/out insert). Analyzed by Qtrap 3200 mass spectrometer. These methods were used data obtained in the FIGS. 22A and 22D.

[4] = tested on: mitochondrial membrane potential; experiment: TMRE mitochondrial membrane potential staining in Mut6 cells; format: cell-based, mouse; conditions: within 30 min
Protocol: TMRE mitochondrial membrane potential assay kit was purchased from Abcam (113852) and the assay was performed according to the manufacturer's protocol. Briefly, cells were pre-incubated with 1 μM 12M11 (10 min or 18 hrs) or 100 nM FCCP (10 min) and incubated for additional 20 min with 200 nM TMRE before pictures were taken.

astrocytes = experiment: Cytotox testing (CellTiter-Glo) in astrocytes; format: cell-based
Protocol: as §1
2,000 cells were plated into each well of 96-well plates. About 3 hours later, cells were treated by 12M11, at 800-fold dilution (4 mM stock was diluted into 5 μM final concentration). Cells were further incubated for 4 days. CellTiter-Glo assay (Promega) was performed according to manufacturer's instructions, by adding 20 μL of reagent into each well. Luminescence signal was detected by the PolarStar plate reader (BMG Labtech). Experiments were performed in quadruplicate, and results are presented with mean average −/+ standard deviation. EC505 were calculated by GraphPad Prism6 software.

MEF = experiment: Change in ATP levels in MEF cells; format: cell-based, mouse; conditions: 2-6 hr
Protocol: (§3) Mut6 tumor cells or MEFs were plated into 96-well plates. One day later, Oligomyin (2 μM), Rotenone (200 nM), or 12M11 (1 μM) were added into each well and then ATP levels were measured by Cell-Titer Glo (Promega) after 2 hr, 4 hr, or 6 hr incubation. Each data is mean of six replicates with ± standard deviation.

Mut6 [5] = experiment: Change in ATP levels in Mut6 cells; format: cell-based, mouse; conditions: Mut6, 2-6 hr
Protocol: as §3

Phospho-S6 = experiment: p-S6 western blot in Mut6 cells; format: cell-based, mouse
Protocol: (§4) Mut6 tumor cells and MEFs were treated by DMSO or 1 μM 12M11 for the indicated times. Cell lysate was prepared by RIPA buffer with phosphatase inhibitor (Thermo) and protease inhibitor (Roche). Antibodies are purchased from Santa Cruz (ATF4), Cell Signaling (pS6, S6, AMPK, and pAMPK), and Millipore (Gapdh).

ATF4 = ATF4 western blot in Mut6 cells; format: cell-based, mouse
Protocol: as §4

Buffer Stability [3]	half-life at 2 μM [2]	SMILES	EC50 (Mut6 [1])	other results
100%		CCc1n(CC(=O)O[C@@H]2C[C@H](C)CC[C@H]2C(C)C)c2ccccc2[n+]1C.[Cl-]	100 to 1000 nM	Plasma T1/2 [2]: < 4 min
		COC(=O)Cn1c(-c2ccccc2)nc2ccccc21	> 5000 nM	
		COC(=O)Cn1c(-c2ccc(N(C)C)cc2)nc2ccccc21	> 5000 nM	
		COC(=O)Cn1c(-c2ccc(C)cc2)nc2ccccc21	> 5000 nM	
		COC(=O)Cn1c(-c2ccc(SC)cc2)nc2ccccc21	> 5000 nM	
		COC(=O)Cn1c(-c2ccc(F)cc2)nc2ccccc21	> 5000 nM	
		COC(=O)Cn1c(-c2cccc(F)c2)nc2ccccc21	> 5000 nM	
		COC(=O)Cn1c(-c2cccc(C#N)c2)nc2ccccc21	> 5000 nM	
		COC(=O)Cn1c(-c2ccco2)nc2ccccc21	> 5000 nM	
		COC(=O)Cn1c(-c2ccccn2)nc2ccccc21	> 5000 nM	
		COC(=O)Cn1c(/C=C/c2ccccc2)nc2ccccc21	> 5000 nM	
		C/C=C/c1n(CC(=O)OC2C[C@H](C)CC[C@H]2C(C)C)c2ccccc2[n+]1C (stereo partly shown)	1000 to 5000 nM	
		CC(C)[C@@H]1CC[C@@H](C)CC1OC(=O)Cn1c(-c2ccccc2)nc2ccccc21 (stereo partly shown)	> 5000 nM	
97%	10.6 min	CC(C)[C@@H]1CC[C@@H](C)CC1OC(=O)Cn1c(-c2ccccc2)[n+](C)c2ccccc21.[I-] (stereo partly shown)	100 to 1000 nM	
		CC(C)[C@@H]1CC[C@@H](C)CC1OC(=O)Cn1c(-c2ccc(O)cc2)nc2ccccc21 (stereo partly shown)	> 5000 nM	
		CC(C)[C@@H]1CC[C@@H](C)CC1OC(=O)Cn1c(-c2cccc(Br)c2)nc2ccccc21 (stereo partly shown)	> 5000 nM	
		CC(C)[C@@H]1CC[C@@H](C)CC1OC(=O)Cn1c(-c2ccc(N=[N+]=[N-])cc2)nc2ccccc21 (stereo partly shown)	> 5000 nM	
114%	9.8 min	CC(C)[C@@H]1CC[C@@H](C)CC1OC(=O)Cn1c(-c2ccc(O)cc2)[n+](C)c2ccccc21.[I-] (stereo partly shown)	1000 to 5000 nM	half-life (Murine S9 half-life): 133 min

Buffer Stability [3]	half-life at 2 μM [2]	SMILES	EC50 (Mut6 [1])	other results
94%	29 min	CC(C)[C@@H]1CC[C@@H](C)CC1OC(=O)Cn1c(-c2cccc(Br)c2)[n+](C)c2ccccc21.[I-] (stereo partly shown)	100 to 1000 nM	
96%	26 min	CC(C)[C@@H]1CC[C@@H](C)CC1OC(=O)Cn1c(-c2ccc(N=[N+]=[N-])cc2)[n+](C)c2ccccc21.[I-] (stereo partly shown)	100 to 1000 nM	half-life (Murine S9 half-life): 26 min
100%	47 min	CC(C)[C@@H]1CC[C@@H](C)CC1OC(=O)Cn1c(-c2ccccc2[N+](=O)[O-])[n+](C)c2ccccc21.[I-] (stereo partly shown)	100 to 1000 nM	half-life (Murine S9 half-life): > 240 min
133%	330 min	CC(C)[C@@H]1CC[C@@H](C)CC1OC(=O)Cn1c(-c2cccc([N+](=O)[O-])c2)[n+](C)c2ccccc21.[I-] (stereo partly shown)	1000 to 5000 nM	half-life (Murine S9 half-life): > 240 min
100%	90 min	CC(C)[C@@H]1CC[C@@H](C)CC1OC(=O)Cn1c(-c2ccc([N+](=O)[O-])cc2)[n+](C)c2ccccc21.[I-] (stereo partly shown)	1000 to 5000 nM	half-life (Murine S9 half-life): 139 min
100%	11 min	CC(C)[C@@H]1CC[C@@H](C)CC1OC(=O)Cn1c(-c2cccc(F)c2)[n+](C)c2ccccc21.[I-] (stereo partly shown)	100 to 1000 nM	
		CC(C)[C@@H]1CC[C@@H](C)CC1OC(=O)Cn1c(-c2cccc(C#N)c2)[n+](C)c2ccccc21 (stereo partly shown)	> 5000 nM	
100%	10 min	CSc1ccc(-c2n(CC(=O)OC3C[C@H](C)CC[C@H]3C(C)C)c3ccccc3[n+]2C)cc1.[I-] (stereo partly shown)	100 to 1000 nM	
9%	8 min	CC(C)[C@@H]1CC[C@@H](C)CC1OC(=O)Cn1c(-c2ccc(N(C)C)cc2)[n+](C)c2ccccc21.[I-] (stereo partly shown)	< 100 nM	
100%	73 min	Cc1ccccc1-c1n(CC(=O)OC2C[C@H](C)CC[C@H]2C(C)C)c2ccccc2[n+]1C.[I-] (stereo partly shown)	100 to 1000 nM	
95%	24 min	Cc1ccc(-c2n(CC(=O)OC3C[C@H](C)CC[C@H]3C(C)C)c3ccccc3[n+]2C)cc1.[I-] (stereo partly shown)	100 to 1000 nM	
100%	240 min	CC(C)[C@@H]1CC[C@@H](C)CC1OC(=O)Cn1c(-c2cccc(C(F)(F)F)c2)[n+](C)c2ccccc21.[I-] (stereo partly shown)	100 to 1000 nM	half-life (Murine S9 half-life): > 240 min
91%	39 min	CC(C)[C@@H]1CC[C@@H](C)CC1OC(=O)Cn1c(-c2cc(Cl)cc(Cl)c2)[n+](C)c2ccccc21.[I-] (stereo partly shown)	100 to 1000 nM	
100%	15 min	COc1ccc(-c2n(CC(=O)OC3C[C@H](C)CC[C@H]3C(C)C)c3ccccc3[n+]2C)cc1.[I-] (stereo partly shown)	100 to 1000 nM	
		N#CC(C#N)=NNc1ccc(OC(F)(F)F)cc1 [FCCP, reference compound]		oxidative phosphorylation / mitochondrial membrane potential by TMRE staining [4]: impairs oxidative phosphorylation
		C[C@@H]1C[C@@H]([C@H](O)CC2CC(=O)NC(=O)C2)C(=O)[C@@H](C)C1 [cycloheximide, reference compound]		activity against Mut6 cells (Mut6 [1]): sensitive; activity against astrocytes (astrocytes): sensitive
		CC[C@H]1/C=C/C=C/C[C@@H](C)[C@H](O)[C@@](C)(O)C(=O)[C@@H](C)[C@H](O)[C@@H](C)C(=O)[C@@H](C)[C@H](O)[C@@H](C)/C=C/C(=O)O[C@@H]2[C@H](C)[C@H](CC1)O[C@]1(CC[C@H](C)[C@H](C[C@@H](C)O)O1)[C@H]2C [oligomycin]		ATP levels (% change from basal) (MEF): increase; activity against Mut6 cells (Mut6 [1]): sensitive; activity against astrocytes (astrocytes): sensitive; ATP levels (% change from basal) (Mut6 [5]): decrease significantly; Phospho-S6 protein level (Phospho-S6): suppression; ATF4 protein level (ATF4): induction
		C=C(C)[C@H]1Cc2c(ccc3c2O[C@@H]2COc4cc(OC)c(OC)cc4[C@@H]2C3=O)O1 [rotenone]		ATP levels (% change from basal) (MEF): increase; activity against Mut6 cells (Mut6 [1]): sensitive; activity against astrocytes (astrocytes): sensitive; ATP levels (% change from basal) (Mut6 [5]): decrease significantly; Phospho-S6 protein level (Phospho-S6): suppression; ATF4 protein level (ATF4): induction
